Test results reported in ChEMBL document CHEMBL1151803, “Melanin synthesis inhibitors from Lespedeza cyrtobotrya” (J Nat Prod, 2009).

Columns and labels:
[1] = Cytotoxicity against NHEM cells assessed as cell viability 24 hrs by WST-8 assay; format: cell-based; settings: human
[2] = Inhibition of melanin synthesis in NHEM after 24 hrs by liquid scintillation; format: functional, Homo sapiens

SMILES | Activity [1] | IC50 ([2]; read-out: IC50) [µM] | IC50 [2]
CC1(C)C=Cc2c(ccc(C(=O)CCc3ccc(O)cc3)c2O)O1 | Non-toxic | 2 | –
Cc1c(O)cc2c(c1O)C(=O)[C@H](O)[C@@H](c1ccc(O)cc1)O2 | Non-toxic | – | Not Active
Cc1c(O)cc2occ(-c3ccc(O)cc3)c(=O)c2c1O | Non-toxic | – | Not Active
CC(C)=CCc1cc([C@@H]2CC(=O)c3ccc(O)cc3O2)ccc1O [ABYSSINONE II] | Non-toxic | 2 | –
OC[C@H]1O[C@@H](Oc2ccc(O)cc2)[C@H](O)[C@@H](O)[C@@H]1O [ARBUTIN] | – | 2.2 | –
CC(C)=CCc1cc2c(cc1O)O[C@H](c1ccc(O)cc1)CC2=O [BAVACHIN] | Non-toxic | 18 | –
COc1c(O)ccc(-c2coc3cc(O)cc(O)c3c2=O)c1OC [BAVAISOFLAVANONE] | Non-toxic | 38.4 | –
CC(C)=CCc1c(O)ccc2c1O[C@H]1c3ccc(O)c(CC=C(C)C)c3OC[C@@H]21 [ERYBRAEDIN A] | Non-toxic | 2 | –
CC(C)=CCc1cc2c(cc1O)OC[C@H]1c3ccc(O)c(CC=C(C)C)c3O[C@@H]21 [ERYBRAEDIN C] | Non-toxic | 5.5 | –
COc1c2c(cc3c1[C@@H]1Oc4ccc5c(c4[C@@H]1CO3)C=CC(C)(C)O5)OC(C)(C)C=C2 [GANGETININ] | Non-toxic | 4.6 | –
O=c1c(-c2ccc(O)cc2)coc2cc(O)cc(O)c12 [GENISTEIN] | Non-toxic | 29.2 | –
Oc1ccc(O)cc1 [HYDROQUINONE] | – | 103 | –
CC(C)=CCc1c(O)ccc(C(=O)/C=C/c2ccc(O)cc2)c1O [ISOBAVACHALCONE] | Non-toxic | 1.4 | –
CC(C)=CCc1c(O)cc(O)c2c1O[C@H](c1ccc(O)cc1O)CC2=O [LEACHIANONE G] | Non-toxic | – | Not Active
CC(C)=CCc1c(O)ccc2c1O[C@H](c1ccc(O)cc1)[C@@H](O)C2=O [LESPECYRTIN A1] | Non-toxic | – | Not Active
C=C(C)C1Cc2c(ccc(C(=O)/C=C/c3ccc(O)cc3)c2O)O1 (stereo not drawn) [LESPECYRTIN B1] | Non-toxic | 1.3 | –
CC1(C)C=Cc2c(O)ccc(C(=O)/C=C/c3ccc(O)cc3)c2O1 [LESPECYRTIN B2] | Non-toxic | 1 | –
CC(C)(O)C1Cc2c(O)ccc(C(=O)/C=C/c3ccc(O)cc3)c2O1 (stereo not drawn) [LESPECYRTIN B3] | Non-toxic | 9.1 | –
C=C(C)C1Cc2c(ccc(C(=O)CCc3ccc(O)cc3)c2O)O1 (stereo not drawn) [LESPECYRTIN C1] | Non-toxic | 3 | –
COc1cc([C@@H]2COc3cc(O)c(CC=C(C)C)cc3C2)c(O)cc1O [LESPECYRTIN D1] | Non-toxic | 2.1 | –
CC1(C)C=Cc2cc3c(cc2O1)OC[C@H]1c2ccc4c(c2O[C@@H]31)C=CC(C)(C)O4 [LESPECYRTIN E1] | Non-toxic | – | –
CC(C)=CCc1c(O)c2c(c3c1[C@@H]1COc4cc5c(cc4[C@@H]1O3)C=CC(C)(C)O5)C=CC(C)(C)O2 [LESPECYRTIN E2] | Non-toxic | 3.7 | –
CC(C)=CCc1cc2c(cc1O)OC[C@H]1c3c4c(c(O)c(CC=C(C)C)c3O[C@@H]21)OC(C)(C)C=C4 [LESPECYRTIN E3] | Non-toxic | 0.4 | –

SMILES | Activity [1] | IC50 ([2]; read-out: IC50) [µM] | IC50 [2]
CC(C)=CCc1c(O)c2c(c3c1O[C@H]1c4cc5c(cc4OC[C@@H]31)OC(C)(C)C=C5)C=CC(C)(C)O2 [LESPECYRTIN E4] | Non-toxic | 4.5 | –
CC(C)=CCc1c(O)c(C)cc2c1O[C@H]1c3cc4c(cc3OC[C@@H]21)OC(C)(C)C=C4 [LESPECYRTIN E5] | Non-toxic | 1.5 | –
CC(C)=CCc1c(O)ccc2c1O[C@H]1c3cc(CCC(C)(C)O)c(O)cc3OC[C@@H]21 [LESPECYRTIN E6] | Non-toxic | 3.4 | –
COc1cc2c(cc1O)O[C@H]1c3cc4c(cc3OC[C@@H]21)OC(C)(C)[C@H](O)C4 [LESPECYRTIN E7] | Non-toxic | 16 | –
CC(C)=CCc1c(O)c(O)cc2c3c(oc12)-c1ccc(O)cc1OC3 [LESPECYRTIN F1] | Non-toxic | – | Not Active
CC(C)=CCc1cc2c(cc1O)OCc1c-2oc2c(CC=C(C)C)c(O)c(O)cc12 [LESPECYRTIN F2] | Non-toxic | 15.9 | –
CC(C)=CCc1c(O)c(O)cc2c1oc1c3ccc(O)cc3oc(=O)c21 [LESPECYRTIN G1] | Non-toxic | – | Not Active
CC(C)=CCC1=C(O)C(Cc2c(-c3cc(CC=C(C)C)c(O)cc3O)oc3c(CC=C(C)C)c(O)c(O)cc23)=C[C@@H]2c3c(c4cc(CC=C(C)C)c(O)cc4oc3=O)O[C@H]12 [LESPECYRTIN H1] | Non-toxic | 8.9 | –
CC(C)=CCC1=C(O)C(C(=O)c2c(-c3cc(CC=C(C)C)c(O)cc3O)oc3c(CC=C(C)C)c(O)c(O)cc23)=C[C@@H]2c3c(c4cc(CC=C(C)C)c(O)cc4oc3=O)O[C@H]12 [LESPECYRTIN H2] | Non-toxic | – | Not Active
CC(C)=CCC1=C(O)C(C(=O)c2c(-c3cc4c(cc3O)OC(C)(C)C=C4)oc3c(CC=C(C)C)c(O)c(O)cc23)=C[C@@H]2c3c(c4cc(CC=C(C)C)c(O)cc4oc3=O)O[C@H]12 [LESPECYRTIN H3] | Non-toxic | 10.1 | –
CC(C)=CCC1=C(O)C(C(=O)c2c(-c3cc(CC=C(C)C)c(O)cc3O)oc3c4c(c(O)cc23)OC(C)(C)C=C4)=C[C@@H]2c3c(c4cc(CC=C(C)C)c(O)cc4oc3=O)O[C@H]12 [LESPECYRTIN H4] | Non-toxic | 6.2 | –
CC(C)=CCc1cc2c(cc1O)OC[C@H]1c3cc(C)c(O)c(CC=C(C)C)c3O[C@@H]21 [LESPEFLORIN G4] | Non-toxic | 3.2 | –
CC(C)=CCc1cc2c(cc1O)oc(=O)c1c3cc(O)c(O)c(CC=C(C)C)c3oc21 [LESPEFLORIN I2] | Non-toxic | 25.7 | –
CC(C)=CCc1cc(-c2oc3c(CC=C(C)C)c(O)c(O)cc3c2C(=O)c2cc3c(c(CC=C(C)C)c2O)O[C@H]2c4cc(CC=C(C)C)c(O)cc4OC[C@@H]32)c(O)cc1O [LESPEFLORIN J3] | Non-toxic | – | –
CC(C)=CCCC1(C)C=Cc2c(ccc(C(=O)/C=C/c3ccc(O)cc3)c2O)O1 (stereo not drawn) [LESPEOL] | Non-toxic | 2.4 | –
CC(C)=CCc1cc(/C=C/C(=O)c2ccc(O)cc2O)ccc1O [LICOAGROCHALCONE A] | Non-toxic | 3.2 | –
O=C1C[C@@H](c2ccc(O)cc2)Oc2cc(O)ccc21 [LIQUIRTIGENIN] | Non-toxic | 14.7 | –
O=C1C[C@@H](c2ccc(O)cc2)Oc2cc(O)cc(O)c21 [NARINGENIN] | Non-toxic | 73.5 | –
CC(C)=CCc1cc(-c2coc3cc(O)ccc3c2=O)ccc1O [NEOBAVAISOFLAVONE] | Non-toxic | 9.4 | –
CC1(C)C=Cc2c(ccc3c2O[C@H]2c4ccc(O)cc4OC[C@@H]32)O1 [PHASEOLIN] | Non-toxic | 7.5 | –
CC(C)=CCc1c(O)ccc2c1O[C@H]1c3ccc(O)cc3OC[C@@H]21 [PHASEOLLIDIN] | Non-toxic | 8.7 | –
CC(C)=CCc1c(O)cc2occ(-c3ccc(O)cc3O)c(=O)c2c1O [UNCINANONE A] | Non-toxic | 5.4 | –
CC(C)=CCC/C(C)=C/Cc1c(O)ccc(C(=O)/C=C/c2ccc(O)cc2)c1O [XANTHOANGELOL] | Non-toxic | 0.98 | –
